Values of other authors as cited in patent US20090082349A1, “THIAZOLONES FOR USE AS PI3 KINASE INHIBITORS” (priority 2006, published 2009).
Like-named read-outs stand apart in the source and are kept apart here.

Tests used:
CK2 protein kinase = CK2 protein kinase (Homo sapiens, UniProt P68400)
Class I PI3-kinases = conditions: each of the four Class I PI3-kinases

Chain of CK2 protein kinase (P68400 whole entry): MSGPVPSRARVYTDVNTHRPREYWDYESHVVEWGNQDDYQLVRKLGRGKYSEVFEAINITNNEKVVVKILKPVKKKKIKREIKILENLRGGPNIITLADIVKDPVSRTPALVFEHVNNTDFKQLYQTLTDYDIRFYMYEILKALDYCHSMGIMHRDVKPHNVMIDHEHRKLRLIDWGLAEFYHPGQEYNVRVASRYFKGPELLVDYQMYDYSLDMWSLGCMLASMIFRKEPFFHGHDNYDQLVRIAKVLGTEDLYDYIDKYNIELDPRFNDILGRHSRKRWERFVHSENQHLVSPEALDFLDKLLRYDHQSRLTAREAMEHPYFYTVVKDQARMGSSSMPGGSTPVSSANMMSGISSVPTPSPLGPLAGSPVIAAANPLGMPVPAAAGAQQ

| Compound | IC50 (CK2 protein kinase) [µM] | IC50 (Class I PI3-kinases; Fruman et al. 1998, read-out: IC50 against each of these PI3-kinases) [µM] | IC50 (Class I PI3-kinases; read-out: IC50 against each of the various Class I PI3-kinases) [µM] |
| --- | --- | --- | --- |
| O=c1cc(N2CCOCC2)oc2c(-c3ccccc3)cccc12 [LY294002] | 5 to 10 | 15 to 20 | – |
| COC[C@H]1OC(=O)c2coc3c2[C@@]1(C)C1=C(C3=O)[C@@H]2CCC(=O)[C@@]2(C)C[C@H]1OC(C)=O [wortmannin] | – | – | 0.001 to 0.01 |
